Assay results published in US8148493B2, “Method for inhibiting “melanoma inhibitory activity” MIA” (Antisense Pharma GmbH, priority 2002, dated 2012).

Columns and labels:
melanoma cells = assay: Melanoma (tumor) cell attachment; type: cell-based
MIA = biological target: T1, MIA (Homo sapiens, UniProt Q16674); assay: Boyden Chamber assay, melanoma cell invasion with and without MIA; type: cell-based
T1 sequence (Q16674 25-131): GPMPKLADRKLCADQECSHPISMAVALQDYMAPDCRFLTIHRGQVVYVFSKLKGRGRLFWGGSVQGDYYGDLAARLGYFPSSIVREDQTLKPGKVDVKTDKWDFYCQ
Text: Both in vitro and in vivo MIA expression levels strictly correlate with an highly invasive phenotype (Bosserhoff et al., 1996, J. Biol. Chem. 271, 490-495; Bosserhoff et al., 1999, J. of Pathology 187, 446-454). Further in vivo studies have shown the necessity of MIA for melanoma invasion and metastasis (Bosserhoff et al., 2001, Melanoma Res. 11, 417-421., Guba, et al., 2000, Br. J. Cancer 83, 1216-1222). We therefore aimed to design MIA-inhibitory peptides based on our experiments which identified fibronectin epitopes interacting with MIA (Stoll et al., 2001; EMBO J. 20: 340-349). Peptides derived from fibronectin which were shown previously to cross-react with MIA were tested in Boyden Chamber assays on their effect on melanoma cell invasion with and without MIA. […] In addition we tested several of the peptide sequences derived from phage display screenings and found peptide SEQ ID NO:16 to be a potential interesting candidate for therapeutic MIA-inhibition. […] We then tested the effect of peptides SEQ ID NO:16 and 22 on growth of metastasis in vivo using the B16/C57B16 model.

B16 melanoma cells = assay: In vivo experimental metastasis assay, B16/C57Bl6 model; conditions: C57Bl6 mice, B16 cells i.v., peptide 550 μg/mouse every day, 18 days; for size of the lung tumor nodules: control 119.9±9.95; for number of black lung nodules of melanoma: control 193±13
Experimental: To measure the effect of SEQ ID NO: 16 and SEQ ID NO:22 on the metastatic potential of B16 melanoma cells in vivo an experimental metastasis assay was used (Bosserhoff et al., 2001, Melanoma Res. 11, 417-421). Intravenous injections of monodispersed tumor cells (1×10^5 cells per animal) were performed into syngeneic C57BI6 mice (n=12 for every peptide as well as control). Peptides (550 μg/mouse) or PBS was injected every day. After 18 days the mice were sacrificed, the lungs removed, washed in PBS, fixed in formalin and the visible tumor nodules on the surface of the lungs were counted and the tumor areas measured.

TSLLISWDAPAVT (from phage display screening) [SEQ ID NO:23, fibronectin-derived peptide]
effect on melanoma/tumor cell attachment (melanoma cells): inhibit also tumor cell attachment
effect on MIA function (melanoma cell invasion) (MIA): block MIA function

ETTIVITWTPAPR (from phage display screening) [SEQ ID NO:22, fibronectin-derived peptide]
size of the lung tumor nodules (B16 melanoma cells): 87.15±5.32
number of black lung nodules of melanoma (B16 melanoma cells): 249±26
effect on MIA function (melanoma cell invasion) (MIA): block MIA function

RLTLLVLIMPAP (from phage display screening) [SEQ ID NO:16, do-decapeptide from phage display]
size of the lung tumor nodules (B16 melanoma cells): 78.1±5.03
number of black lung nodules of melanoma (B16 melanoma cells): 198±19
effect on melanoma/tumor cell attachment (melanoma cells): no effect
effect on MIA function (melanoma cell invasion) (MIA): strongly inhibited

NSLLVSWQPPRAR (from phage display screening) [SEQ ID NO:24, fibronectin-derived peptide]
effect on melanoma/tumor cell attachment (melanoma cells): inhibit also tumor cell attachment
effect on MIA function (melanoma cell invasion) (MIA): block MIA function
